# Source: patent publication US11744273B2, “Sweetness enhancing volatile compositions and methods of increasing perceived sweetness of a comestible” (University of Florida Research Foundation, Inc., priority 2016, dated 2023)
# Columns and labels:
# Type in all cases: in vivo, human
# [1] = system: sweetness; assay: Blueberry sensory panels; PLS analysis, sweetness (Table 7); details: multivariate regression analysis
# Protocol: Sensory analysis was conducted similar to described above for tomatoes and strawberries in Examples 1 and 3. […] Panelists were trained with the scaling methods and were encouraged to return for the remainder of the study. Panelists rated overall liking, texture liking, sweetness, sourness, and flavor intensity using hedonic general Labeled Magnitude Scales (gLMS) (−100 to +100; −100=greatest disliking of any kind, +100=greatest liking of any kind) and intensity gLMS (0 to +100; 0=no sensation, 100=most intense sensation of any kind), which allow for improved comparison between panelists and between years (see Bartoshuk, L. M., et al., 2004 and Bartoshuk, L. M., et al., 2005). Panelists were also asked to rate the intensity of taste and flavor sensations of a hypothetical ideal blueberry on this scale. Each panelist received two to four berries of five to six genotypes in a single panel in a Williams design, which was generated by Compusense 5.6 (Compusense Inc., Guelph, Ontario, Canada). They were asked to eat the blueberries of each genotype at once, and to take a bite of cracker and sip of water in between samples. Ratings were recorded using Compusense software.
# (§1) Soluble solids content (SSC), titratable acidity (TA), and volatiles were quantified as described above for tomato and strawberries. The volatiles were collected for two hours via dynamic headspace with HaySep Q 80-100 porous polymer adsorbent (Valco Instruments Company Inc., Houston, Tex.) and eluted with methylene chloride and nonyl acetate as an elution standard. Elutions were run on an Agilent 7890A Gas Chromatograph Flame Ionization Detector (GC-FID) DB-5 column (30 m length×250 mm diameter×1 mm film) for quantification and on an Agilent 7890A Gas Chromatograph coupled to an Agilent 5977A Mass Selective Detector (GC/MSD) for qualification (Agilent, Santa Clara, Calif.). Integrated peak area of each signal was normalized for elution, fitted to relative pure chemical response, corrected for sample mass, and expressed as nanograms per gram fresh weight per hour (ng gFW-1 h-1). Response fitting was calculated using the response factor of pure chemical standards (Sigma-Aldrich, St. Louis, Mo.) run on the same instrument.
# (§2) Pair-wise correlations and significance between sensory measurements and primary bio-chemical components were calculated, with panelist as a random effect. Least Square Means (LSMeans) of the sensory data for each sample were obtained to account of the random effect of panelist. A partial least squares (PLS) analysis was constructed in JMP1 Pro 10 (SAS Institute Inc., Cary, N.C.) to reveal effectors of sensory ratings (see, e.g., Togari N., et al., 1995; Hough, G., et al., 1996; deKermadec, F., et al., 1997; Toscas, P. J., et al., 1999; and Tenenhaus, M., et al., 2005). The response variables (Y) considered corresponded to LSMeans of overall liking, sweetness, sourness, and blueberry flavor intensity. Glucose, fructose, sucrose, TA, pH, and 52 volatile compounds were considered as explanatory variables (X). The inclusion of texture liking was evaluated independently given that no explanatory physical measure was made for sample texture. […] The model was created without texture for analysis.
# • Top six and bottom six biochemical measures explaining sensory responses as determined by partial least squares (PLS) analysis. […]
# [2] = system: sweetness; assay: Blueberry sensory panels; multiple regression of volatiles against sweetness independent of fructose, glucose and/or sucrose (Table 8); details: for t Ratio (Fructose): contribution to sweetness independent of fructose; for t Ratio (Glucose): contribution to sweetness independent of glucose; for t Ratio (Sucrose): contribution to sweetness independent of sucrose
# Source text: Panelists were trained with the scaling methods and were encouraged to return for the remainder of the study. […] Panelists were also asked to rate the intensity of taste and flavor sensations of a hypothetical ideal blueberry on this scale. Each panelist received two to four berries of five to six genotypes in a single panel in a Williams design, which was generated by Compusense 5.6 (Compusense Inc., Guelph, Ontario, Canada). They were asked to eat the blueberries of each genotype at once, and to take a bite of cracker and sip of water in between samples. Ratings were recorded using Compusense software.
# as §1, with “Elutions were run on an Agilent 7890A Gas Chromatograph Flame Ionization Detector (GC-FID) DB-5 column (30 m length×250 mm diameter×1 mm film) for quantification and on an Agilent 7890A Gas Chromatograph coupled to an Agilent 5977A Mass Selective Detector (GC/MSD) for qualification (Agilent, Santa Clara, Calif.).” left out
# as §2, with “A partial least squares (PLS) analysis was constructed in JMP1 Pro 10 (SAS Institute Inc., Cary, N.C.) to reveal effectors of sensory ratings (see, e.g., Togari N., et al., 1995; Hough, G., et al., 1996; deKermadec, F., et al., 1997; Toscas, P. J., et al., 1999; and Tenenhaus, M., et al., 2005).” left out
# [3] = system: sweetness; assay: Orange juice; partial least squares regression of volatiles against sweetness independent of total sugar (Table 9)
# Protocol: Volatile content of orange juice was assessed and analyzed similar to as described above for tomato, strawberry, and blueberry, described above. The process for obtaining volatile samples from orange juice was slightly different than for tomatoes, strawberries and blueberries. […] Briefly, instead of collecting volatiles at room temperature from a fruit mash in headspace of a closed area, the volatiles were elicited by heating the juice to collect volatiles.
# [4] = system: perceived sweetness; assay: Tomato taste panel; revised partial least squares regression against sweetness independent of fructose or glucose (Table 4); details: for FRUCTOSE t RATIO: sweetness independent of fructose; for GLUCOSE t RATIO: sweetness independent of glucose
# Protocol: (§3) Fully ripe fruit were harvested, and used for taste panels. A random subset of fruit was used for biochemical analysis. Three biological replicates, each consisting of 2-20 fruit (depending on fruit size), were assayed for each variety. […] Panelists were between the ages of 18 and 78 with a median age of 22. […] An average of 85 (range of 66-95) of these panelists evaluated between 4-6 varieties in a session. All panelists went through a training session to familiarize them with the scaling and procedures. Tomatoes were sliced into wedges (or in halves for grape/cherry types) and each panelist was given two pieces for evaluation. Panelists took a bite of each sample, chewed and swallowed it, and rated overall liking and liking for texture. They then rated the perceived intensities of sweetness, sourness, saltiness, umami sensation, bitterness and overall tomato flavor. They were free to take as many bites as necessary to complete the assessments. They were instructed to take a bite of an unsalted cracker and a sip of water between samples. Samples were presented to the panelists in a randomized order. Hedonic ratings used the hedonic gLMS. This scale assesses the liking for tomatoes in the context of all pleasure/displeasure experiences: 0=neutral, −100=strongest disliking of any kind experienced, and +100=strongest liking of any kind experienced. Sensory intensity ratings used the gLMS (7,8,19). This scale assesses taste and flavor sensations in the context of all sensory experience (7): 0=no sensation, 100=strongest sensation of any kind experienced. Both scales were devised to provide valid comparisons across subjects.
# Biochemical and psychophysical data sets from fruit and fruit taste panels are mathematically probed for relationships using standard least squares and partial least squares regression modeling techniques (SAS JMP Pro 12.0.1 and R version 3.2.4 statistical software packages). The exact regression type is dependent on the structure of the data, i.e. depending on the size and distributions of the overall datasets.
# [5] = system: perceived sweetness; assay: Tomato taste panel; initial multiple regression of volatiles against perceived sweetness (Table 3); details: tomato volatiles; multiple regression, contribution to sweetness independent of the measures of sugar
# Protocol: as §3
# (§4) The 68 chemical compounds measured in this experiment were initially divided into six groups based upon biochemical properties: sugars, branched chain amino acids, lipids, carotenoids, phenolics, and acids. A small number of compounds for which biosynthetic pathways are not established were assigned to one of the six classes based upon their correlations with other classified compounds. All pairwise correlations among the set of 68 compounds were calculated. Correlation coefficients were sorted using Modulated Modularity Clustering (MMC) (9) as a visual aid for identifying compounds that are closely related in this sample. Biochemical groups were examined for compounds within the group that were highly correlated and compounds that were upstream in the relevant metabolic pathways were preferentially selected.
# (§5) All analyses were performed in SAS v 9.2.
# In conducting the multiple regression analysis on the tomato data set, the independent variables were the sugar content (glucose+fructose), and the flavor (indicated by the retronasal perception of volatiles), while the dependent variable was the perceived sweetness.
# [6] = system: flavor intensity; assay: Tomato taste panel; association of compounds with tomato flavor intensity; details: univariate models
# Protocol: as §3, §4, §5
# Due to the large number of chemicals potentially influencing liking, a multivariate analysis of the data was performed. The attributes were initially partitioned into six groups based upon chemical properties and biosynthetic pathways: sugars, branched chain amino acids, fatty acids, carotenoids, phenolics, and acids. […] Groups of structurally related chemicals with known metabolic links were examined for compounds within each module that were highly colinear and compounds that were upstream in relevant metabolic pathways were preferentially selected.
compound,measurement,setting,value
CCCCCC(C)=O [2-Heptanone],independent enhancement of perception of sweetness,[1],independently enhancing perception of sweetness
C=CC1(C)CCC(C(C)(C)O)O1 (stereo not drawn) [(Z)-linalool oxide (furanoid)],t Ratio (Fructose),[2],1.154
same,t Ratio (Glucose),[2],1.356
same,t Ratio (Sucrose),[2],1.079
C=C1CC[C@H]2O[C@]2(C)CC[C@@H]2[C@@H]1CC2(C)C [(—)-Caryophyllene oxide],t Ratio (Fructose),[2],1.845
same,t Ratio (Glucose),[2],1.608
same,t Ratio (Sucrose),[2],.982
C=C(C)[C@H]1CC=C(C)CC1 [D-Limonene],t Ratio (Fructose),[2],1.176
same,t Ratio (Glucose),[2],.954
same,t Ratio (Sucrose),[2],.609
"C[Si](C)(C)CCOC(=O)CC(=O)OCC[Si](C)(C)C [Malonic acid, bis(2-trimethylsilylethyl ester]",Total Sugar t Ratio,[3],3.148
"C[Si](C)(O)O [Silanediol, dimethyl-]",Total Sugar t Ratio,[3],1.781
CC1=C(C=O)C(C)(C)CCC1 [beta-cyclocitral],FRUCTOSE t RATIO,[4],1.905
same,GLUCOSE t RATIO,[4],1.688
same,t,[5],1.186
CC1=CC[C@H]2[C@H]3[C@@H]1[C@]2(C)CC[C@H]3C(C)C [copaene],Total Sugar t Ratio,[3],2.06
N[C@@H](CCC(=O)O)C(=O)O [glutamatic acid],FRUCTOSE t RATIO,[4],−1.746
same,GLUCOSE t RATIO,[4],−2.953
CC(C)=CCC/C(C)=C\C=O [neral],independent enhancement of perception of sweetness,[1],independently enhancing perception of sweetness
C=C(C)[C@@H]1CCC2=CCC[C@@H](C)[C@]2(C)C1 [valencene],Total Sugar t Ratio,[3],2.206
CC(=O)/C=C/C1C(C)=CCCC1(C)C (stereo not drawn) [α-ionone],Total Sugar t Ratio,[3],2.042
CC1=CCCC2(C)CCC3C(C)(C)CC132 (stereo not drawn) [α-panasinsen],Total Sugar t Ratio,[3],2.909
C=C(C)[C@@H]1CC[C@@]2(C)CCC=C(C)[C@@H]2C1 [α-selinene],Total Sugar t Ratio,[3],2.428
CC1=CC[C@H]2C(C)=CC[C@@H](C(C)C)[C@@H]2C1 [β-cadinene],Total Sugar t Ratio,[3],2.69
C/C=C/C(=O)C1=C(C)C=CCC1(C)C [β-damascenone],FRUCTOSE t RATIO,[4],0.138
same,GLUCOSE t RATIO,[4],0.678
same,association with flavor intensity,[6],not associated with tomato flavor intensity
same,t,[5],1.012
CC(=O)/C=C/C1=C(C)CCCC1(C)C [β-ionone],Total Sugar t Ratio,[3],1.28
same,FRUCTOSE t RATIO,[4],2.12
same,GLUCOSE t RATIO,[4],1.748
same,t,[5],1.135
C=C1CCCC2(C)CCC(=C(C)C)CC12 (stereo not drawn) [γ-Selinene],Total Sugar t Ratio,[3],4.272
C=C(C)C1=C[C@]2(C)C(=CC1)CCC[C@H]2C [γ-vetivenene],Total Sugar t Ratio,[3],2.469
b-caryophyllene/aromadendrene,Total Sugar t Ratio,[3],1.565
neryl propanoate/Geranyl isobutanoate,Total Sugar t Ratio,[3],2.298
